Results from patent publication US9186421B2, “Establishment of rhesus monkey model of autoimmunity type 1 diabetes” (West China Hospital, Sichuan University, priority 2010, dated 2015).

What was measured:
rhesus monkeys = test: Diabetes model prepared by low dose STZ induction; assay type: in vivo, rhesus monkey
Protocol: Low dose of STZ was administered intravenously for 5 consecutive days, at a dose of 15-30 mg/kg per time; and administrated again on the 7th day and 14th day after last administration. Fasting glucose was observed once each week.
6 rhesus monkeys were used to prepare models according to the method of the present invention and 4 models were successfully prepared. […]

[1] = tested on: rhesus monkey model of autoimmune type 1 diabetes; test: Insulin treatment of the rhesus monkey model of autoimmune type 1 diabetes; assay type: in vivo
Protocol: At present, insulin injection is the main treatment method of autoimmune type 1 diabetes. Insulin was applied to the rhesus monkey model of autoimmune type 1 diabetes in this experiment. The specific way was as follows:
1. According to the habit of eating twice per day of rhesus monkeys, different types of insulin were injected twice a day (9:30 am & 17:30 pm) in different doses, applied to the autoimmune type 1 diabetes model prepared by Example 1 of the present invention: combined treatment of (1) long-acting insulin: porcine insulin (protamine zinc insulin) produced by Wanbang Company (Xuzhou, China) and (2) short-acting insulin: ordinary porcine insulin produced by Wanbang Company (Xuzhou, China).
2. Initially, low dose of insulin (0.4 U/kg) was injected subcutaneously so as to avoid the occurrence of low blood glucose.
3. The fasting and postprandial glucose levels were monitored. The administration dosage was adjusted according to the blood glucose level, finally allowing the fasting and postprandial blood glucose to be less than 10 mmol/L and glycosylated hemoglobin to be less than 6.5%.

[2] = established model after low dose STZ i.v.
[3] = insulin s.c. twice a day, start 0.4 U/kg, dosage adjusted to blood glucose

Compound	fasting blood glucose, fluctuation (rhesus monkeys; after intravenous injection of STZ, 20 or 25 mg/kg per time, days 1-5, 12, 19) [mmol/L]	fasting blood glucose, consistently (rhesus monkeys; [2])	serum C-peptide (rhesus monkeys; [2])	glucagon expression-positive cells in the islet tissue (rhesus monkeys; immunohistochemistry, FIG. 3B)	models successfully prepared (rhesus monkeys; of 6 rhesus monkeys)	fasting and postprandial blood glucose [1, 3]	glycosylated hemoglobin [1, 3]	therapeutic effect on autoimmune type 1 diabetes ([1]; long-acting plus short-acting porcine insulin)
CN(N=O)C(=O)N[C@@H](C=O)[C@@H](O)[C@H](O)[C@H](O)CO [STZ, Streptozotocin]	3.2 to 17.6	higher than 11.1 mmol/L	less than 0.3 nM	above 90%	4	–	–	–
Insulin: combined treatment of long-acting porcine insulin (protamine zinc insulin) and short-acting ordinary porcine insulin, Wanbang Company	–	–	–	–	–	less than 10 mmol/L	less than 6.5%	better therapeutic effect
